Measured values taken from ChEMBL document CHEMBL1148466, “Self-association of okadaic acid upon complexation with potassium ion” (J Med Chem, 2004).

How the values were obtained:
[1] = Inhibitory activity against serine/threonine protein phosphatase 2 (PP2A)
[2] = molecular target: Serine/threonine-protein phosphatase PP1-gamma catalytic subunit (Homo sapiens, UniProt P36873); test: Inhibitory activity against serine/threonine protein phosphatase 1(PP1)
Serine/threonine-protein phosphatase PP1-gamma catalytic subunit, sequence (P36873 whole entry): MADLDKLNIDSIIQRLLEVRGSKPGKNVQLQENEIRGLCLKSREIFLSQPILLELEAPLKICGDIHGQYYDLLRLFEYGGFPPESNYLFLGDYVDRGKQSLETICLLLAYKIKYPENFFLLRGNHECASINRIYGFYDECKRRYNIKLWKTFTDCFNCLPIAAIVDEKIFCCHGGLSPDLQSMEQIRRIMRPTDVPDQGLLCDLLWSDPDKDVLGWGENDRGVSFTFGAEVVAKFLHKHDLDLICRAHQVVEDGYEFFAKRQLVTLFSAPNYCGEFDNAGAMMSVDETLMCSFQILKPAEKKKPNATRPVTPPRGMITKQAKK

C=C1[C@@H](O)[C@@H]2O[C@]3(CC[C@H](/C=C/[C@@H](C)[C@@H]4CC(C)=C[C@@]5(O[C@H](C[C@@](C)(O)C(=O)O)CC[C@H]5O)O4)O3)CC[C@H]2O[C@@H]1[C@@H](O)C[C@H](C)[C@H]1O[C@@]2(CCCCO2)CC[C@H]1C [OKADAIC ACID]
IC50 [1]: 0.2 nM | IC50 [2]: 20 nM
